The test system of one series is HAdV5-GFP. In words: Plaque assay (inhibition of HAdV plaque formation). It counts as cell-based, HAdV-5. To be noted: for Selectivity index (SI): ratio of CC50 to IC50 in plaque assay; for inhibition at 10 µM: read-out: Plaque Assay (%) Inhibition (10 μM). In outline: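 Cells at 80-90% confluency infected with HAdV5-GFP at 0.06 vp/cell, rocked 2 h at 37° C, then washed with PBS. Compounds tested at 10 μM and in dose-response from 10 to 0.3 μM, included in the post-infection mixture.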

For a further series, the system named is A549 cells. In words: Cytotoxicity assay (AlamarBlue). To be noted: read-out: CC50 (μM), cytotoxic concentration 50%; A549 cell line, 48 h. As for the experimental part:
(§1) Cytotoxicity Assay. The cytotoxicity of the compounds was analyzed by commercial kit AlamarBlue® (Invitrogen, Ref. DAL1025). A549 cells at a density of 5×10^3 cells per well in 96-well plates were seeded. […] Cells were then incubated at 37° C. for 48 h following the kit protocol. The cytotoxic concentration 50 (CC50) value was obtained using the statistical package GraphPad Prism. This assay was performed in duplicate.
In general terms: Alamar Blue is a resazurin reagent that responds to reducing activity.

Series [1] in a line: Cytotoxicity assay (AlamarBlue). To be noted: human, A549 cells. The protocol:
as §1

[2] abbreviates: HAdV5-GFP, low MOI, 293β5 cell line, read-out: Plaque Assay IC50.

SMILES strings stand for the structures. Read-outs that look alike come from different tables or passages of the source.

This is an account of results in patent US20230140290A1, “SALICYLAMIDE DERIVATIVES AND RELATED METHODS OF MAKING” (THE BOARD OF REGENTS OF THE UNIVERSITY OF TEXAS SY, priority 2020, published 2023).

The IC50 is the concentration that inhibits the measured activity by half. As usually defined, the inhibition is the change of the read-out against control, counted positive when it falls. With `O=C(Nc1ccc(NCc2cnccc2Cl)cc1Cl)c1cc(Cl)ccc1O` [Compound 110, 5-Chloro-N-(2-chloro-4-(((4-chloropyridin-3-yl)methyl)amino)phenyl)-2-hydroxybenzamide], the IC50 in the series with HAdV5-GFP (setting [2]) is 1.66 to 4.78 µM; with HAdV5-GFP ({}), 1.66 ± 0.42 µM. In the series on HAdV5-GFP, the “Selectivity index (SI)” value worked out at 75.7. Further, the inhibition at 10 µM in the series on HAdV5-GFP turned out to be 100%. Besides, the CC50 with A549 cells is 126 ± 25.1 µM. Moreover, in series [1], the CC50 at 48 h fell in the range of 65.3 to 126 µM.
On to `O=C(Nc1ccc(NCc2cccc(Br)n2)cc1Cl)c1cc(Cl)ccc1O` [Compound 111, N-(4-(((6-Bromopyridin-2-yl)methyl)amino)-2-chlorophenyl)-5-chloro-2-hydroxybenzamide], for which the IC50 in the series with HAdV5-GFP (setting [2]) was in the range of 1.66 to 4.78 µM. In addition, in the series on HAdV5-GFP, the “Selectivity index (SI)” value worked out at 40.8 and the inhibition at 10 µM turned out to be 100%. The molecule also returned an IC50 in the series with HAdV5-GFP ({}) of 2.26 ± 0.05 µM. Also, the CC50 in the series with A549 cells was 92.3 ± 9.5 µM. Moreover, the CC50 at 48 h in series [1] is 65.3 to 126 µM.
